# Laboratory results taken from EP0497921B1, “METHOD FOR INHIBITING ENZYMATIC SYNTHESIS OF NUCLEIC ACIDS USING ISOPSORALENS” (ISAACS, Stephen T., priority 1989, dated 1991).
# Where two headings read alike, the source gives them in different places.
# Columns and labels:
# [1] = system: Hind-III restriction fragments of lambda DNA; assay: Photobinding of BIODMIP to lambda DNA fragments; format: binding; details: 100 µg/ml plus 50 µg additional; two 30 minute irradiations at room temperature with the PTI device
# Description: BIODMIP (100 µg/ml) was irradiated for 30 minutes at room temperature with the PTI device in 500 µl of 1 x TE buffer with 2 µg of Hind-III restriction fragments of lambda DNA. After the first irradiation, the mixture was transferred to a new tube containing 50 µg additional BIODMIP and this was incubated at 37°C for one hour to dissolve the compound. This was followed by a second 30 minute irradiation at room temperature with the PTI device. It was observed that, under these conditions BIODMIP added to the DNA at a ratio of 1 covalently bound BIODMIP per 20 base pairs.
# [2] = system: DNA polymerase I from E. coli. B; details: cited from earlier work; for template activity lost by modified DNA: C.M. Ou et al., covalently modified DNA
# [3] = water; cited from earlier work
# [4] = system: human placental DNA; assay: PCR amplification with unirradiated AMDMIP and DMSO co-solvent; format: biochemical; details: no AMDMIP, average of duplicates, 139,000 at 0% DMSO
# Description: In this example, the effect of DMSO on PCR amplification in the presence of high concentrations of sterilizing compound (AMDMIP) was investigated. Samples were prepared for PCR which contained 1 µg of human placental DNA either with or without (unirradiated) AMDMIP (200 µg/ml). The samples were amplified 30 cycles under standard PCR conditions in the presence of 0%, 1%, 5% or 10% DMSO. The reaction mix contained α-^32P-dCTP. Following amplification, the samples were analyzed by PAGE (data not shown).
# [5] = system: Taq I DNA polymerase; assay: Primer extension on site-specific 71-mer monoadduct template; format: biochemical, Thermus aquaticus; details: 55°C; 0.5, 1.0, 5.0 mins; PAGE, autoradiography
# Description: In this experiment, monoadducted 71-mers (as well as unmodified 71-mers) were used in template-dependent enzymatic extension. AMIP, AMDMIP, and MIP 71-mer monoadducts were made as in Example 17. Extension was carried out as in Example 18 except that in this experiment, Taq I DNA polymerase, a thermostable DNA polymerase isolated from Thermus aquaticus (Stratagene, Inc., La Jolla, CA) was assessed for its ability to read past isopsoralens.
# The reaction mixture was in 80 µl total volume and comprised 1 x Taq buffer, 200 µM each of dNTP's, 0.05 units of Taq per µl of reaction volume; 1 x 10^-9 M in 71-mer MA; 1 x 10^-8 M in ^32P-labelled SK-39. Each reaction was set up with everything except Taq polymerase. The samples were initially heated to 95°C for 5 mins, then incubated at 55°C for 3 mins. The extension reaction was initiated by addition of Taq polymerase. At the indicated time points (0.5, 1.0, 5.0 mins), 20 µl of the reaction mix was removed to a tube containing 1 µl of 0.5 M EDTA to stop the reaction. All products were analyzed on a 20% polyacrylamide, 7 M urea gel followed by autoradiography.
# This experiment investigated whether blocking of Taq polymerase by monoadducts is complete or whether monoadducts can be bypassed by the enzyme. In order to view the process of bypass synthesis, it is necessary to cycle the extension reaction of the primer with the 71-mer templates. Cycling in this case consists of mixing the primer with the 71-mer template, adding Taq polymerase and appropriate reagents, extending, heating to induce strand separation, reannealing of the primer to the 71-mer template, extending again, and subsequent stand separation. This process can be repeated as necessary. During this process, only the complement of the 71-mer template is being synthesized. It is accumulating in a linear fashion with the number of thermal cycles (in contrast to PCR where both strands are being synthesized and accumulate geometrically).
# The templates and reaction conditions were as in Example 19 above except that three samples were used for each monoadduct and each sample was tested under different conditions: • Samples (1): one sample for each monoadduct was used to carry out extension at 55°C as in Example 43; • Samples (2): one sample for each monoadduct was used to carry out extension by the following series of steps: denaturing at 95°C; incubating for 30 seconds at 55°C; adding Taq polymerase for 3 minutes at 550C; cooling the reaction for 1 minute at 7°C; stopping the reaction with EDTA for one minute at 95°C: • Samples (3): one sample for each monoadduct was used to carry out extension by repeating the following series of steps nine times: denaturing at 95°C; incubating for 30 seconds at 55°C; adding Taq polymerase for 3 minutes at 55°C; cooling the reaction for 1 minute at 7°C. At the end, the reaction is stopped with EDTA for one minute at 95°C.
# To investigate this question further, a new 5-MIP monoadducted 71-mer was prepared by repurification of the HPLC purified 5-MIP monoadducted 15-mer by PAGE. In this way, more of the non-monoadducted 15-mer was removed prior to ligation. The purified 71-mer was then used as template in an extension experiment as described in Example 20. After 10 cycles, there was still evidence of extension product (Figure 34).
# Monoadducted 71-mer was constructed as described, but for HMT. Extension was carried out and analyzed as before on PAGE. […] Full length 71-mer is not made and a shorter strand corresponding to the position of the HMT adduct was made.
# [6] = Solubility of photoreactive compounds in 1 X TE (optical density of filtrate); format: physicochemical; details: nd = not detectable (solubility was less than 1 µg/ml)
# Description: The solubilities of AMIP, AMDMIP, DMIP, MIP and isopsoralen (IP) were determined experimentally according to the scheme set forth in Figure 5. To perform the solubility measurement, it was first necessary to establish known optical densities for a 1 µg/ml solution of each compound. These were determined by preparing either ethanolic or aqueous stocks of each compound at known concentrations in 1 x TE, then measuring the optical density of each solution. From this information, the absorption of a 1 µg/ml solution was computed. Alternatively, the extinction coefficient may be thus determined and used in the same fashion. In this manner, the following absorption data was collected:
# Following this step, undissolved compound was removed by filtration using a 0.2 u nylon-66 syringe filter (Arco LC13; Gelman). The concentration of the remaining soluble compound was then determined by measuring the optical density of the filtrate and computing the solubility from the known optical density of a 1 µg/ml solution of that compound. The solubility of the compounds was thus determined to be as follows: […]
# [7] = system: HIV 115-mer; assay: PCR with pre-irradiated photobiotin or monoazide ethidium chloride; format: biochemical
# Description: In this experiment, photobiotin and monoazide ethidium chloride were tested as PCR sterilization reagents. The temporal steps were performed to examine photoproduct effects (if any). Solutions of photobiotin and monoazide ethidium chloride were made up in 1 x Taq buffer. Concentrations of photobiotin ranged form 7 x 10^-4 M to […]: concentrations of the monoazide ethidium chloride ranged from 3 x 10^-9 M to 3 x 10^-10M. […] Each compound solution was divided into two parts: One part was irradiated under a GE sunlamp through a pyrex filter (300nm cut-off); the other half was irradiated under a GE sunlamp through a 2.9 M NaNO2 liquid filter (400 nm cut-off). Irradiations were carried out on ice for 15 minutes. After irradiation, aliquots of each tube were carried over into tubes containing PCR reagents and target (HIV 115-mer); PCR was then carried out for 30 cycles in the presence of α-^32P-dCTP. After amplification aliquots were analyzed on 12% acrylamide/8M urea gels.
# [8] = molecular target: Taq polymerase (Thermus aquaticus, UniProt P19821); assay: Primer extension on 71-mer after random addition of compound or addition of photoproduct; format: biochemical
# Excerpt: In this experiment, the ability of AMIP, AMDMIP and MIP to block replication of 71-mer is investigated by randomly adding each compound to the 71-mer. of course, addition may only be random in the sense that one or more adducts may be formed with any one strand of nucleic acid. The actual placement of the isopsoralen may be governed by preferential binding at particular sites (e.g. A:T). In addition to blockage by random adducts, photoproducts of the various isopsoralens may be providing an inhibitory effect. No attempt to separate the effects of photoproduct from the effects of covalent adducts on the 71-mer template was made in this series of experiments.
# In these experiments, the 71-mer template (10^-9 M) was primed with ^32P-SK-39 (10^-8) and extended with Taq polymerase in a total volume of 20 µl. The dNTP concentration was 200 µM. In the control samples, the 71-mer, the primer, and the dNTPs were mixed in Taq buffer in a volume of 18 µl. These samples were initially denatured at 95°C for 5 minutes, followed by equilibration at 550C for 3 minutes. Taq enzyme was then added (0.5 units) and the extension reaction was carried out for 5 minutes at 55°C. The reaction was stopped by making the solution 10 mM in EDTA. In another set of samples, the 71-mer in 10 µl was mixed with either AMIP (200 µg/ml), AMDMIP (200 µg/ml), or MIP (60 µg/ml). Half of these samples were irradiated for 15 minutes on the CE-I device at 25°C. The other half was kept in the dark as controls. These samples were then mixed with the primer and dNTPs as before, and were subjected to the same thermal profile and extension reactions as the samples that were described earlier. The results were examined by PAGE. The extended product bands were identified by autoradiography, excised and counted (data not shown).
# In this experiment, the ability of two different Phenylazide derivatives (see Table 1), photobiotin (Vector Labs) and monoazide ethidium chloride, to block replication of 71-mer was investigated by randomly adding each compound to the 71-mer. Again, addition may only be random in the sense that one or more adducts may be formed with any one strand of nucleic acid. The actual placement of these compounds may be governed by preferential binding at particular sites (e.g. A:T). In addition to blockage by random adducts, there may be inhibition by photoproducts. As in Example 23, no attempt was made to separate the impact of photoproducts from that of covalent binding of photoreactive compound on the 71-mer.
# The two compounds, photobiotin and monoazide ethidium chloride, have different spectral characteristics. To activate these compounds, two different wavelength regions were selected using a single light source (General Electric Sunlamp, Model RSM, 275 watt). The light source was positioned 10 cm above uncapped Eppendorph tubes which contained samples to be irradiated. The samples were kept on ice during irradiation. A pyrex dish was placed between the lamp and the samples.
# For samples containing photobiotin, 2.5 cm of water was added to the pyrex dish to help remove some of the infrared radiation. The samples were irradiated for 15 minutes.
# For samples containing monoazide ethidium chloride, wavelengths less than 400 nm were filtered out by using 2.5 cm of an aqueous solution of 2.9 M NaNO2. Removal of short wavelengths (i.e. wavelengths shorter than 400 nm) is necessary for the use of monoazide ethidium chloride. Irradiation of this compound with shorter wavelengths results in conversion to non-active forms (data not shown). Wavelengths below 400 nm are therefore undesirable for use with this compound.
# In this experiment, the 71-mer template (2 x 10^-9 M) in 10 µl was mixed with either no photoreactive compound, photobiotin (6 x 10^-6 M), or monoazide ethidium (1.4 x 10^-3 M). Half of each of these samples were irradiated on ice for 15 minutes with wavelengths appropriate for each specific photoreactive compound. […]
# Sequence of Taq polymerase (P19821 whole entry): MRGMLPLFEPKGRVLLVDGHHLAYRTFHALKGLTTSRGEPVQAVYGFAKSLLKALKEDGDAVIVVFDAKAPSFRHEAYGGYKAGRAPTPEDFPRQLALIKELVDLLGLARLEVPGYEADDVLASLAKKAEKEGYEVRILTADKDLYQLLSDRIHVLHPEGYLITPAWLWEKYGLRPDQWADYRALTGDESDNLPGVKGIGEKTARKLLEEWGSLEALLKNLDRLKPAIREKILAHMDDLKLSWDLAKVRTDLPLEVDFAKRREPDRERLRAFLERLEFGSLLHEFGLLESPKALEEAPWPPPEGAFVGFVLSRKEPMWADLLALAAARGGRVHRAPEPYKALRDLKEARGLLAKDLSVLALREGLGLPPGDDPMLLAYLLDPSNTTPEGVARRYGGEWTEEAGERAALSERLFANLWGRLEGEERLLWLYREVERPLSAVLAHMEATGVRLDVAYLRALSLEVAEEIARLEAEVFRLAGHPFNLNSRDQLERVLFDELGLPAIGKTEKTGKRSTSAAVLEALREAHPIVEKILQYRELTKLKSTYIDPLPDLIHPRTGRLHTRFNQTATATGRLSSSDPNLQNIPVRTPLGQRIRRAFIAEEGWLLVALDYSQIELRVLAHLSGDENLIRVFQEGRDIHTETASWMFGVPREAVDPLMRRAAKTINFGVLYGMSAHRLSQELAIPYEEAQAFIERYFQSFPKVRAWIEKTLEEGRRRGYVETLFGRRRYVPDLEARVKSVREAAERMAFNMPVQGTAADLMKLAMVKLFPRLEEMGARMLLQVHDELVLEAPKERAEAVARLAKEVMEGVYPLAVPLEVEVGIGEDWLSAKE
compound,measurement,setting,value
"Cc1oc2ccc3c(C)cc(=O)oc3c2c1CN(C)CCCCCCN(C)C(=O)CCCCCNC(=O)CCCC[C@@H]1SC[C@@H]2NC(=O)N[C@@H]21 [BIODMIP, 4'-N-[N,N'-dimethyl-N'-(6-{biotinamido} -hexanoate)-1,6-hexanediamine] -methyl-4,5'-dimethylisopsoralen]",ratio of 1 covalently bound BIODMIP per n base pairs,[1],20 base pairs
"COc1c2occc2cc2ccc(=O)oc12 [Compound 8-MOP, 8-methoxypsoralen]",template activity lost by modified DNA,[2],97%
"COc1cc(OC)c2ccc(=O)oc2c1 [DMC, 5,7-dimethoxycoumarin]",template activity lost by modified DNA,[2],50%
"Cc1cc2c(ccc3c(C)cc(=O)oc32)o1 [DMIP, 4,5'-Dimethylisopsoralen]",maximum aqueous solubility,[3],8 µg/mL
"C[S+](C)[O-] [DMSO, dimethyl sulfoxide]",CPM of product bands,[4]; 1% DMSO,"137,000 CPM"
same,CPM of product bands,[4]; 5% DMSO,"94,000 CPM"
same,CPM of product bands,[4]; 10% DMSO,"76,000 CPM"
"Cc1oc2c(C)c3oc(=O)cc(C)c3cc2c1CO [HMT, 4'-hydroxymethyl-4,5',8-trimethylpsoralen]",inhibition of E. Coli polymerase I by covalently bound monoadducts,"[2]; Piette and Hearst 1983, nick-translating a double-stranded template",not inhibited
same,inhibition of E. Coli polymerase I by covalently bound monoadducts,"[2]; Piette and Hearst 1985, single-stranded template (bacteriophage DNA)",inhibited
same,Taq polymerase extension on 71-mer monoadduct template,[5],stop Taq polymerase
"O=c1ccc2ccc3occc3c2o1 [IP, isopsoralen]",Solubility in 1 X TE,[6],2 µg/mL
"CN(CCCNC(=O)CCCC[C@@H]1SC[C@@H]2NC(=O)N[C@@H]21)CCCNc1ccc(N=[N+]=[N-])cc1[N+](=O)[O-] [photobiotin, reference compound]",concentration at which pre-irradiated compound shut down PCR,"[7]; highest concentration used, 115-mer amplified at all lower concentrations",700 µM
same,extension after irradiation,"[8]; photobiotin (6 x 10^-6 M), irradiated on ice for 15 minutes, GE sunlamp",inhibition only after irradiation
monoazide ethidium chloride [reference compound],inhibition of PCR by pre-irradiated compound,"[7]; irradiated on ice 15 minutes under GE sunlamp before addition to PCR, 30 cycles",does not inhibit PCR
same,"extension, dark control","[8]; photobiotin (6 x 10^-6 M) or monoazide ethidium (1.4 x 10^-3 M), kept in the dark",inhibition of extension
